From patent US10472347B2, “Aminopyrazine compounds with A2A antagonist properties” (Merck Sharp & Dohme Corp., priority 2014, dated 2019)

The compounds below were run against T1, human A2a receptor (Homo sapiens, UniProt P29274) (assay: A2a competition binding assay, Scintillation Proximity technology). Settings: membranes from HEK293 cells expressing human A2a receptor; Ki by Cheng-Prusoff equation.
T1 construct: purchased Perkin-Elmer RBHA2AM400UA; host or cells: HEK293 cells (membranes)
Summary of the method: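 Membranes from HEK293 cells expressing human A2a, adenosine deaminase-treated, incubated 1 h at room temperature with compound (3000 to 0.15 nM) and 0.5 nM tritiated pyrazolotriazolopyrimidine radioligand on WGA SPA beads in Ca/Mg-free PBS + 10 mM MgCl2. Non-specific binding with 1 μM CGS15943; Ki by Cheng-Prusoff.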

T1 sequence (P29274 whole entry): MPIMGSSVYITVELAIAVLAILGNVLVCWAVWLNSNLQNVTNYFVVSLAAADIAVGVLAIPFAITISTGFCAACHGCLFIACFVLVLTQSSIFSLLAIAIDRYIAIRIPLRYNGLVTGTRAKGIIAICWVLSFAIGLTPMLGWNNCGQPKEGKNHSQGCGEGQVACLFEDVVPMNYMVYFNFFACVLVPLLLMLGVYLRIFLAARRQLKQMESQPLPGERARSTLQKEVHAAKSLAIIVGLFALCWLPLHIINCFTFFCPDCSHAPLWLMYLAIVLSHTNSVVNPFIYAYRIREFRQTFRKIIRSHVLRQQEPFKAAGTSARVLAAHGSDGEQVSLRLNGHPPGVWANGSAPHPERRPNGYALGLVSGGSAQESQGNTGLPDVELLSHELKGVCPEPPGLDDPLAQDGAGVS

Ki [nM] | Compound
3.75 | Cc1cccc(CNC(=O)c2nc(C)c(-c3cnco3)nc2N)n1 [Ex-263, 3-amino-6-methyl-N-[(6-methylpyridin-2-yl)methyl]-5-(1,3-oxazol-5-yl)pyrazine-2-carboxamide]
359 | Nc1nc(-n2ccnn2)c(Cl)nc1C(=O)NCc1ccccc1C(F)(F)F [Ex-268, 3-amino-6-chloro-5-(1H-1,2,3-triazol-1-yl)-N-[2-(trifluoromethyl)benzyl] pyrazine-2-carboxamide]
4.3 | Nc1nc(-n2nccn2)c(Cl)nc1C(=O)NCc1ccccc1C(F)(F)F [Ex-269, 3-amino-6-chloro-5-(2H-1,2,3-triazol-2-yl)-N-[2-(trifluoromethyl)benzyl] pyrazine-2-carboxamide]
6470 | Nc1nc(-n2ccnn2)c(Cl)nc1C(=O)NCc1ccc(F)cc1F [Ex-270, 3-amino-6-chloro-N-(2,4-difluorobenzyl)-5-(1H-1,2,3-triazol-1-yl)pyrazine-2-carboxamide]
6.19 | Nc1nc(-n2nccn2)c(Cl)nc1C(=O)NCc1ccc(F)cc1F [Ex-271, 3-amino-6-chloro-N-(2,4-difluorobenzyl)-5-(2H-1,2,3-triazol-2-yl)pyrazine-2-carboxamide]
269 | Nc1nc(-n2ccnn2)c(Cl)nc1C(=O)NCc1cccc2cccnc12 [Ex-272, 3-amino-6-chloro-N-(quinolin-8-ylmethyl)-5-(1H-1,2,3-triazol-1-yl)pyrazine-2-carboxamide]
2.23 | Nc1nc(-n2nccn2)c(Cl)nc1C(=O)NCc1cccc2cccnc12 [Ex-273, 3-amino-6-chloro-N-(quinolin-8-ylmethyl)-5-(2H-1,2,3-triazol-2-yl)pyrazine-2-carboxamide]
2 | Cc1nc(C(=O)NCc2c(F)cccc2F)c(N)nc1-n1nccn1 [Ex-274, 3-amino-N-(2,6-difluorobenzyl)-6-methyl-5-(2H-1,2,3-triazol-2-yl)pyrazine-2-carboxamide]
2.1 | Cc1nc(C(=O)NCc2cccc3cccnc23)c(N)nc1-n1nccn1 [Ex-275, 3-amino-6-methyl-N-(quinolin-8-ylmethyl)-5-(2H-1,2,3-triazol-2-yl)pyrazine-2-carboxamide]
408 | CCOC(=O)c1nc(C)c(-n2nccn2)nc1N [Ex-276, ethyl 3-amino-6-methyl-5-(2H-1,2,3-triazol-2-yl)pyrazine-2-carboxylate]
3.3 | Cc1cccnc1CNC(=O)c1nc(C)c(-n2nccn2)nc1N [Ex-277, 3-amino-6-methyl-N-[(3-methylpyridin-2-yl)methyl]-5-(2H-1,2,3-triazol-2-yl)pyrazine-2-carboxamide]
191 | Cc1cccnc1CNC(=O)c1nc(C)c(-n2ccnn2)nc1N [Ex-278, 3-amino-6-methyl-N-[(3-methylpyridin-2-yl)methyl]-5-(1H-1,2,3-triazol-1-yl)pyrazine-2-carboxamide]
59.3 | Cc1nc(C(=O)NCc2ccc(Cl)cc2Cl)c(N)nc1-n1nccn1 [Ex-279, 3-amino-N-(2,4-dichlorobenzyl)-6-methyl-5-(2H-1,2,3-triazol-2-yl)pyrazine-2-carboxamide]
148 | Cc1nc(C(=O)NC2CCNc3ccccc32)c(N)nc1-n1nccn1 (centres unmarked) [Ex-280, 3-amino-6-methyl-N-(1,2,3,4-tetrahydroquinolin-4-yl)-5-(2H-1,2,3-triazol-2-yl)pyrazine-2-carboxamide]
5.7 | Nc1nc(-n2nccn2)c(Cl)nc1C(=O)N[C@@H]1CCc2ccccc21 [Ex-281, 3-amino-6-chloro-N-[(1R)-2,3-dihydro-1H-inden-1-yl]-5-(2H-1,2,3-triazol-2-yl)pyrazine-2-carboxamide]
1.4 | Cc1cccnc1CNC(=O)c1nc(Cl)c(-n2nccn2)nc1N [Ex-282, 3-amino-6-chloro-N-[(3-methylpyridin-2-yl)methyl]-5-(2H-1,2,3-triazol-2-yl)pyrazine-2-carboxamide]
2.4 | COc1ccccc1CNC(=O)c1nc(Cl)c(-n2nccn2)nc1N [Ex-283, 3-amino-6-chloro-N-(2-methoxybenzyl)-5-(2H-1,2,3-triazol-2-yl)pyrazine-2-carboxamide]
6.5 | Nc1nc(-n2nccn2)c(Cl)nc1C(=O)NCc1ccccc1OC(F)(F)F [Ex-284]

Continued, compound first:

Compound | Ki [nM]
Cc1nc(C(=O)NCc2cccc3c2cnn3CC(F)F)c(N)nc1-c1ncco1 [Ex-228, 3-amino-N-{[1-(2,2-difluoroethyl)-1H-indazol-4-yl]methyl}-6-methyl-5-(1,3-oxazol-2-yl)pyrazine-2-carboxamide] | 1.74
Cc1nc(C(=O)NCc2cccc3c2ncn3CC2CC2)c(N)nc1-c1ncco1 [Ex-229, 3-amino-N-{[1-(cyclopropylmethyl)-1H-benzimidazol-4-yl]methyl}-6-methyl-5-(1,3-oxazol-2-yl)pyrazine-2-carboxamide] | 0.358
Cc1nc(C(=O)NC2Cc3ccccc3C2)c(N)nc1-c1ncco1 [Ex-235, 3-amino-N-(2,3-dihydro-1H-inden-2-yl)-6-methyl-5-(1,3-oxazol-2-yl)pyrazine-2-carboxamide] | 0.243
Cc1ccc(C(C)(C)O)nc1CNC(=O)c1nc(C)c(-c2ncco2)nc1N [Ex-236, 3-amino-N-{[6-(1-hydroxy-1-methylethyl)-3-methylpyridin-2-yl]methyl}-6-methyl-5-(1,3-oxazol-2-yl)pyrazine-2-carboxamide] | 1.61
COc1ccc(C(C)(C)O)nc1CNC(=O)c1nc(C)c(-c2ncco2)nc1N [Ex-237, 3-amino-N-{[6-(1-hydroxy-1-methylethyl)-3-methoxypyridin-2-yl]methyl}-6-methyl-5-(1,3-oxazol-2-yl)pyrazine-2-carboxamide] | 1.77
Cc1nc(C(=O)NC2CC(O)c3cccnc32)c(N)nc1-c1ncco1 (centres unmarked) [Ex-240A, 3-amino-N-(5-hydroxy-6,7-dihydro-5H-cyclopenta[b]pyridin-7-yl)-6-methyl-5-(1,3-oxazol-2-yl)pyrazine-2-carboxamide] | 40.5
Cc1nc(C(=O)NC2CC(O)c3cccnc32)c(N)nc1-c1ncco1 (centres unmarked) [Ex-240B, 3-amino-N-(5-hydroxy-6,7-dihydro-5H-cyclopenta[b]pyridin-7-yl)-6-methyl-5-(1,3-oxazol-2-yl)pyrazine-2-carboxamide] | 1.73
CCn1ncc2c(CNC(=O)c3nc(C)c(-c4ncco4)nc3N)cccc21 [Ex-242, 3-amino-N-[(1-ethyl-1H-indazol-4-yl)methyl]-6-methyl-5-(1,3-oxazol-2-yl)pyrazine-2-carboxamide] | 1.09
CCn1cc2c(CNC(=O)c3nc(C)c(-c4ncco4)nc3N)cccc2n1 [Ex-243, 3-amino-N-[(2-ethyl-2H-indazol-4-yl)methyl]-6-methyl-5-(1,3-oxazol-2-yl)pyrazine-2-carboxamide] | 15.1
Cc1nc(C(=O)NCc2ncccc2C(F)(F)F)c(N)nc1-c1cnco1 [Ex-249, 3-amino-6-methyl-5-(1,3-oxaol-5-yl)-N-{[3-(trifluoromethyl)-pyridin-2-yl]-methyl}pyrazine-2-carboxamide] | 3.45
Nc1nc(-c2cnco2)c(Cl)nc1C(=O)NCc1cccc2cccnc12 [Ex-250, 3-amino-6-chloro-5-(1,3-oxazol-5-yl)-N-(quinolin-8-ylmethyl)pyrazine-2-carboxamide] | 2.4
Cc1nc(C(=O)NCc2c(F)cccc2F)c(N)nc1-c1cnco1 [Ex-251, 3-amino-N-(2,6-difluorobenzyl)-6-methyl-5-(1,3-oxazol-5-yl)pyrazine-2-carboxamide] | 1.1
Cc1cccnc1CNC(=O)c1nc(C)c(-c2cnco2)nc1N [Ex-252, 3-amino-6-methyl-N-[(3-methylpyridin-2-yl)methyl]-5-(1,3-oxazol-5-yl)pyrazine-2-carboxamide] | 1.81
Cc1nc(C(=O)NCc2ccc(F)cc2F)c(N)nc1-c1cnco1 [Ex-253, 3-amino-N-(2,4-difluorobenzyl)-6-methyl-5-(1,3-oxazol-5-yl)pyrazine-2-carboxamide] | 8.57
COc1ccccc1CNC(=O)c1nc(C)c(-c2cnco2)nc1N [Ex-254, 3-amino-N-(2-methoxybenzyl)-6-methyl-5-(1,3-oxazol-5-yl)pyrazine-2-carboxamide] | 1.47
Cc1nc(C(=O)NCc2c(Cl)cccc2Cl)c(N)nc1-c1cnco1 [Ex-255, 3-amino-N-(2,6-dichlorobenzyl)-6-methyl-5-(1,3-oxazol-5-yl)pyrazine-2-carboxamide] | 0.2
Cc1cccc(Cl)c1CNC(=O)c1nc(C)c(-c2cnco2)nc1N [Ex-256, 3-amino-N-(2-chloro-6-methylbenzyl)-6-methyl-5-(1,3-oxazol-5-yl)pyrazine-2-carboxamide] | 0.196
Cc1nc(C(=O)NCc2ncccc2C(F)(F)F)c(N)nc1-c1cnco1 [Ex-257, 3-amino-6-methyl-5-(1,3-oxazol-5-yl)-N-{[3-(trifluoromethyl)pyridin-2-yl]methyl}pyrazine-2-carboxamide] | 1.94
Cc1cc(Cl)cc(Cl)c1CNC(=O)c1nc(C)c(-c2cnco2)nc1N [Ex-258, 3-amino-N-(2,4-dichloro-6-methylbenzyl)-6-methyl-5-(1,3-oxazol-5-yl)pyrazine-2-carboxamide] | 2.9
Cc1nc(C(=O)NC(C)(C)c2ccccn2)c(N)nc1-c1cnco1 [Ex-259, 3-amino-6-methyl-N-(1-methyl-1-pyridin-2-ylethyl)-5-(1,3-oxazol-5-yl)pyrazine-2-carboxamide] | 403
Cc1nc(C(=O)NC(C)(C)c2ccc(F)c(F)c2)c(N)nc1-c1cnco1 [Ex-260, 3-amino-N-[1-(3,4-difluorophenyl)-1-methylethyl]-6-methyl-5-(1,3-oxazol-5-yl)pyrazine-2-carboxamide] | 786
Cc1nc(C(=O)NC(C)(C)c2ccncc2)c(N)nc1-c1cnco1 [Ex-261, 3-amino-6-methyl-N-(1-methyl-1-pyridin-4-ylethyl)-5-(1,3-oxazol-5-yl)pyrazine-2-carboxamide] | 1420
Cc1nc(C(=O)NCC(C)(F)F)c(N)nc1-c1cnco1 [Ex-262, 3-amino-N-(2,2-difluoropropyl)-6-methyl-5-(1,3-oxazol-5-yl)pyrazine-2-carboxamide] | 340
